Tested on: 885512-296-R-J2-PDC complex spheroid viability
Test: Anticancer human tumor 885512-296-R-J2-PDC patient-derived breast carcinoma cell line growth inhibition [GQUAD]
Conditions: for IC50: curve of first compound; for viability, T/C: stronger effect = lower value
In short: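 Multi-cell-type spheroids of tumor cells with HUVEC and mesenchymal stem cells, treated with drug combinations. Concentrations descend in half-log steps from near clinical Cmax, or from 10 microM where Cmax is unknown; viability read-out.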
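Note: spheroids exposed to the compounds for one week.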
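Throughout, for viability, T/C: percent of tumor spheroid viability relative to DMSO vehicle control wells.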

## CC(C)n1c(=O)n(C)c2cnc3cc(F)c(-c4ccc(OCCCN5CCCCC5)nc4)cc3c21 + Cc1[nH]c2ccc(F)cc2c1-c1nc2c3cccnc3c3ncccc3c2[nH]1
Second compound 0.0316 µM
  IC50: > 10 µM
Second compound 0.1 µM
  IC50: > 10 µM
Second compound 0.316 µM
  IC50: > 10 µM
Second compound 1 µM
  IC50: 4.45 µM
Second compound 3.16 µM
  IC50: < 0.0316 µM
Second compound 10 µM
  IC50: < 0.0316 µM
Second compound 0.0316 µM, first compound 0.0316 µM
  viability, T/C: 84.4%
Second compound 0.0316 µM, first compound 0.1 µM
  viability, T/C: 82.5%
Second compound 0.0316 µM, first compound 0.316 µM
  viability, T/C: 83.2%
Second compound 0.0316 µM, first compound 1 µM
  viability, T/C: 103%
Second compound 0.0316 µM, first compound 3.16 µM
  viability, T/C: 112%
Second compound 0.0316 µM, first compound 10 µM
  viability, T/C: 98.9%
Second compound 0.1 µM, first compound 0.0316 µM
  viability, T/C: 92.1%
Second compound 0.1 µM, first compound 0.1 µM
  viability, T/C: 92.3%
Second compound 0.1 µM, first compound 0.316 µM
  viability, T/C: 88%
Second compound 0.1 µM, first compound 1 µM
  viability, T/C: 104%
Second compound 0.1 µM, first compound 3.16 µM
  viability, T/C: 104%
Second compound 0.1 µM, first compound 10 µM
  viability, T/C: 122%
Second compound 0.316 µM, first compound 0.0316 µM
  viability, T/C: 89.1%
Second compound 0.316 µM, first compound 0.1 µM
  viability, T/C: 77.6%
Second compound 0.316 µM, first compound 0.316 µM
  viability, T/C: 89.7%
Second compound 0.316 µM, first compound 1 µM
  viability, T/C: 90%
Second compound 0.316 µM, first compound 3.16 µM
  viability, T/C: 103%
Second compound 0.316 µM, first compound 10 µM
  viability, T/C: 67.3%
Second compound 1 µM, first compound 0.0316 µM
  viability, T/C: 48.6%
Second compound 1 µM, first compound 0.1 µM
  viability, T/C: 68.2%
Second compound 1 µM, first compound 0.316 µM
  viability, T/C: 63.9%
Second compound 1 µM, first compound 1 µM
  viability, T/C: 66%
Second compound 1 µM, first compound 3.16 µM
  viability, T/C: 68.8%
Second compound 1 µM, first compound 10 µM
  viability, T/C: 19%
Second compound 3.16 µM, first compound 0.0316 µM
  viability, T/C: 7.3%
Second compound 3.16 µM, first compound 0.1 µM
  viability, T/C: 8.5%
Second compound 3.16 µM, first compound 0.316 µM
  viability, T/C: 13.1%
Second compound 3.16 µM, first compound 1 µM
  viability, T/C: 10%
Second compound 3.16 µM, first compound 3.16 µM
  viability, T/C: 10.8%
Second compound 3.16 µM, first compound 10 µM
  viability, T/C: 1.66%
Second compound 10 µM, first compound 0.0316 µM
  viability, T/C: 1.24%
Second compound 10 µM, first compound 0.1 µM
  viability, T/C: 4.55%
Second compound 10 µM, first compound 0.316 µM
  viability, T/C: 2.57%
Second compound 10 µM, first compound 1 µM
  viability, T/C: 2.18%
Second compound 10 µM, first compound 3.16 µM
  viability, T/C: 2.19%
Second compound 10 µM, first compound 10 µM
  viability, T/C: 1.31%
